Results published in the supplement of paper PMC10307832.

Legend:
Assay in all cases: relative viability (nuclei count vs DMSO), 5 days (fraction); higher = more cells survive
[1] = compound: C1CNCCC1C2=CC(=NN2)C3=CC=NC=C3 + CC(=O)c1c(C)c2cnc(Nc3ccc(N4CCNCC4)cn3)nc2n(C2CCCC2)c1=O [Palbociclib] (partner 0.5 µM)
Outline: (§1)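 Relative viability was taken as the ratio of nuclei in treated wells to nuclei in vehicle wells. Lung cancer cell lines in 1536-well plates received compounds by pin tool one day after seeding, either one drug alone or a fixed anchor-drug dose plus five library-drug doses (not always all listed) in √10 steps. Nuclei were counted on 4× images after 5 days of treatment, and values are medians of duplicate plates.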

[2] = compound: C[C@@H](N)c1ccc(C(=O)Nc2ccnc3[nH]ccc23)cc1 + CC(=O)Nc1cccc(-n2c(=O)n(C3CC3)c(=O)c3c(Nc4ccc(I)cc4F)n(C)c(=O)c(C)c32)c1 [Trametinib] (partner 0.02 µM)
Outline: as §1

[3] = compound: C[C@@H](N)c1ccc(C(=O)Nc2ccnc3[nH]ccc23)cc1 + Cc1nc(NC(=O)N2CCC[C@H]2C(N)=O)sc1-c1ccnc(C(C)(C)C(F)(F)F)c1 [Alpelisib] (partner 2 µM)
Outline: as §1

[4] = compound: O[C@H]1CC[C@H](Nc2ncc3nc(Nc4c(F)cc(F)cc4F)n([C@H]4CCOC4)c3n2)CC1 [Tanzisertib] + CCNC(=O)c1noc(-c2cc(C(C)C)c(O)cc2O)c1-c1ccc(CN2CCOCC2)cc1 [Luminespib] (partner 0.01 µM)
Outline: as §1

SK-LU-1
relative viability ([1]; first compound 0.08 µM): 0.418 | relative viability ([1]; first compound 0.8 µM): 0.348 | relative viability ([1]; first compound 2.53 µM): 0.43 | relative viability ([1]; first compound 8 µM): 0.397 | relative viability ([2]; first compound 0.04 µM): 0.422 | relative viability ([2]; first compound 0.1265 µM): 0.506 | relative viability ([2]; first compound 0.4 µM): 0.625 | relative viability ([2]; first compound 1.265 µM): 0.299 | relative viability ([2]; first compound 4 µM): 0.473 | relative viability ([3]; first compound 0.04 µM): 1.03 | relative viability ([3]; first compound 0.1265 µM): 0.973 | relative viability ([3]; first compound 0.4 µM): 0.986 | relative viability ([3]; first compound 1.265 µM): 0.888 | relative viability ([3]; first compound 4 µM): 0.704 | relative viability ([4]; first compound 0.08 µM): 0.229 | relative viability ([4]; first compound 0.253 µM): 0.231 | relative viability ([4]; first compound 0.8 µM): 0.189 | relative viability ([4]; first compound 2.53 µM): 0.181 | relative viability ([4]; first compound 8 µM): 0.18

LOU-NH91
relative viability ([1]; first compound 0.08 µM): 0.539 | relative viability ([1]; first compound 0.8 µM): 0.539 | relative viability ([1]; first compound 2.53 µM): 0.545 | relative viability ([1]; first compound 8 µM): 0.589 | relative viability ([2]; first compound 0.04 µM): 0.746 | relative viability ([2]; first compound 0.1265 µM): 0.796 | relative viability ([2]; first compound 0.4 µM): 0.739 | relative viability ([2]; first compound 1.265 µM): 0.644 | relative viability ([2]; first compound 4 µM): 0.539 | relative viability ([3]; first compound 0.04 µM): 0.684 | relative viability ([3]; first compound 0.1265 µM): 0.764 | relative viability ([3]; first compound 0.4 µM): 0.671 | relative viability ([3]; first compound 1.265 µM): 0.609 | relative viability ([3]; first compound 4 µM): 0.613 | relative viability ([4]; first compound 0.08 µM): 0.431 | relative viability ([4]; first compound 0.253 µM): 0.345 | relative viability ([4]; first compound 0.8 µM): 0.371 | relative viability ([4]; first compound 2.53 µM): 0.33 | relative viability ([4]; first compound 8 µM): 0.349

LXF-289
relative viability ([1]; first compound 0.08 µM): 0.599 | relative viability ([1]; first compound 0.8 µM): 0.644 | relative viability ([1]; first compound 2.53 µM): 0.646 | relative viability ([1]; first compound 8 µM): 0.58 | relative viability ([2]; first compound 0.04 µM): 0.661 | relative viability ([2]; first compound 0.1265 µM): 0.676 | relative viability ([2]; first compound 0.4 µM): 0.708 | relative viability ([2]; first compound 1.265 µM): 0.797 | relative viability ([2]; first compound 4 µM): 0.588 | relative viability ([3]; first compound 0.04 µM): 1.12 | relative viability ([3]; first compound 0.1265 µM): 1.04 | relative viability ([3]; first compound 0.4 µM): 1.04 | relative viability ([3]; first compound 1.265 µM): 1.07 | relative viability ([3]; first compound 4 µM): 0.85 | relative viability ([4]; first compound 0.08 µM): 0.66 | relative viability ([4]; first compound 0.253 µM): 0.621 | relative viability ([4]; first compound 0.8 µM): 0.684 | relative viability ([4]; first compound 2.53 µM): 0.675 | relative viability ([4]; first compound 8 µM): 0.643

NCI-H1299
relative viability ([3]; first compound 0.04 µM): 1.05 | relative viability ([3]; first compound 0.1265 µM): 1.04 | relative viability ([3]; first compound 0.4 µM): 0.997 | relative viability ([3]; first compound 1.265 µM): 0.894 | relative viability ([3]; first compound 4 µM): 0.926

HARA
relative viability ([1]; first compound 0.08 µM): 0.284 | relative viability ([1]; first compound 0.8 µM): 0.282 | relative viability ([1]; first compound 2.53 µM): 0.281 | relative viability ([1]; first compound 8 µM): 0.28 | relative viability ([2]; first compound 0.04 µM): 0.918 | relative viability ([2]; first compound 0.1265 µM): 1.01 | relative viability ([2]; first compound 0.4 µM): 0.804 | relative viability ([2]; first compound 1.265 µM): 0.549 | relative viability ([2]; first compound 4 µM): 0.936 | relative viability ([3]; first compound 0.04 µM): 0.813 | relative viability ([3]; first compound 0.1265 µM): 0.928 | relative viability ([3]; first compound 0.4 µM): 0.914 | relative viability ([3]; first compound 1.265 µM): 0.796 | relative viability ([3]; first compound 4 µM): 0.598 | relative viability ([4]; first compound 0.08 µM): 0.856 | relative viability ([4]; first compound 0.253 µM): 0.907 | relative viability ([4]; first compound 0.8 µM): 1.06 | relative viability ([4]; first compound 2.53 µM): 0.79 | relative viability ([4]; first compound 8 µM): 0.686

LU99A
relative viability ([1]; first compound 0.08 µM): 0.405 | relative viability ([1]; first compound 0.8 µM): 0.389 | relative viability ([1]; first compound 2.53 µM): 0.435 | relative viability ([1]; first compound 8 µM): 0.391 | relative viability ([2]; first compound 0.1265 µM): 0.586 | relative viability ([2]; first compound 0.4 µM): 0.52 | relative viability ([2]; first compound 1.265 µM): 0.477 | relative viability ([2]; first compound 4 µM): 0.483 | relative viability ([3]; first compound 0.04 µM): 0.554 | relative viability ([3]; first compound 0.1265 µM): 0.554 | relative viability ([3]; first compound 0.4 µM): 0.562 | relative viability ([3]; first compound 1.265 µM): 0.545 | relative viability ([3]; first compound 4 µM): 0.52 | relative viability ([4]; first compound 0.08 µM): 0.204 | relative viability ([4]; first compound 0.253 µM): 0.238 | relative viability ([4]; first compound 0.8 µM): 0.239 | relative viability ([4]; first compound 2.53 µM): 0.26 | relative viability ([4]; first compound 8 µM): 0.227

201T
relative viability ([1]; first compound 0.08 µM): 0.376 | relative viability ([1]; first compound 0.8 µM): 0.353 | relative viability ([1]; first compound 2.53 µM): 0.355 | relative viability ([1]; first compound 8 µM): 0.362 | relative viability ([2]; first compound 0.04 µM): 0.701 | relative viability ([2]; first compound 0.1265 µM): 0.712 | relative viability ([2]; first compound 0.4 µM): 0.733 | relative viability ([2]; first compound 1.265 µM): 0.758 | relative viability ([2]; first compound 4 µM): 0.815 | relative viability ([3]; first compound 0.04 µM): 1.06 | relative viability ([3]; first compound 0.1265 µM): 1.01 | relative viability ([3]; first compound 0.4 µM): 1.01 | relative viability ([3]; first compound 1.265 µM): 1.06 | relative viability ([3]; first compound 4 µM): 1.24 | relative viability ([4]; first compound 0.08 µM): 1.09 | relative viability ([4]; first compound 0.253 µM): 1.06 | relative viability ([4]; first compound 0.8 µM): 1.06 | relative viability ([4]; first compound 2.53 µM): 1.03 | relative viability ([4]; first compound 8 µM): 1.05

HCC-827
relative viability ([1]; first compound 0.08 µM): 0.498 | relative viability ([1]; first compound 0.8 µM): 0.437 | relative viability ([1]; first compound 2.53 µM): 0.534 | relative viability ([1]; first compound 8 µM): 0.499 | relative viability ([2]; first compound 0.1265 µM): 0.703 | relative viability ([2]; first compound 0.4 µM): 0.758 | relative viability ([2]; first compound 1.265 µM): 0.763 | relative viability ([2]; first compound 4 µM): 0.653 | relative viability ([3]; first compound 0.04 µM): 0.982 | relative viability ([3]; first compound 0.1265 µM): 1.09 | relative viability ([3]; first compound 0.4 µM): 1.04 | relative viability ([3]; first compound 1.265 µM): 1.03 | relative viability ([3]; first compound 4 µM): 0.895 | relative viability ([4]; first compound 0.08 µM): 0.668 | relative viability ([4]; first compound 0.253 µM): 0.594 | relative viability ([4]; first compound 0.8 µM): 0.642 | relative viability ([4]; first compound 2.53 µM): 0.588 | relative viability ([4]; first compound 8 µM): 0.259

NCI-H1666
relative viability ([1]; first compound 0.08 µM): 0.657 | relative viability ([1]; first compound 0.8 µM): 0.662 | relative viability ([1]; first compound 2.53 µM): 0.667 | relative viability ([1]; first compound 8 µM): 0.669 | relative viability ([2]; first compound 0.04 µM): 0.852 | relative viability ([2]; first compound 0.1265 µM): 0.903 | relative viability ([2]; first compound 0.4 µM): 0.981 | relative viability ([2]; first compound 1.265 µM): 0.916 | relative viability ([2]; first compound 4 µM): 0.926 | relative viability ([3]; first compound 0.04 µM): 0.973 | relative viability ([3]; first compound 0.1265 µM): 1.12 | relative viability ([3]; first compound 0.4 µM): 1.18 | relative viability ([3]; first compound 1.265 µM): 1.36 | relative viability ([3]; first compound 4 µM): 1.16 | relative viability ([4]; first compound 0.08 µM): 1.01 | relative viability ([4]; first compound 0.253 µM): 0.924 | relative viability ([4]; first compound 0.8 µM): 1.05 | relative viability ([4]; first compound 2.53 µM): 1.19 | relative viability ([4]; first compound 8 µM): 1.18
